{"source": "patent EP2756852A1", "about": "“Heparin-lipidic nanoparticle conjugates” (Centre de Recerca en Salut Internacional de Barcelona, priority 2013, dated 2014)", "key": {"healthy cells": {"system": "healthy cells", "test": "Unspecific cytotoxicity assay (WST-1)", "type": "cell-based", "conditions": "DOTAP concentration up to 200 µM; 24 or 48 h at 37°C; WST-1, absorbance at 440 nm", "experimental": "Cells were seeded in 96-well plates at a density of 5000 cells/100 µl/well, and incubated for 24 hours at 37°C in Medium 199 with Earle's Salts, supplemented with L-glutamine and FBS (PAA Laboratories GmbH). After that time the medium was carefully removed with a pipette and 90 µL of new medium (without FBS in this case) were added, followed by 10 µL of the sample to be analysed, which consisted of a solution of DOTAP 200 µM in PBS. It is advisable to prepare the sample dilutions in a 9:1 proportion (9 µl media:1 µl sample). After incubating for either 24 or 48 h at 37°C, 10 µL of WST-1 reagent were added, and after incubating for 1 h at 37°C absorbance at 440 nm was measured."}, "P. falciparum 3D7 strain": {"system": "P. falciparum 3D7 strain", "test": "Plasmodium falciparum growth inhibition assay (parasitemia by blood smear counting or FACS)", "type": "cell-based", "conditions": "expressed with respect to non-treated pRBC, 48 h, liposomes 50 µM total lipid, primaquine 3 µM final in culture", "experimental": "For culture maintenance, parasitemias were kept below 5% late forms by dilution with washed RBCs.\n150 µL of this Plasmodium culture was plated in 96-well plates and incubated in the presence of liposomes for 48 h in the conditions described above.\nParasitemia was determined by microscopic counting of blood smears, or by fluorescence-assisted cell sorting (FACS). Smears were fixed in methanol for a few seconds and then stained for ten minutes with Giemsa (Merck Chemicals, Germany) diluted 1:10 in Sorenson's Buffer, pH 7.2. […] Samples were analyzed using an Epics XL flow cytometer (Coulter Corporation, Miami, Florida), set up with the standard configuration. Excitation of the sample was done using a standard 488 nm air-cooled argon-ion laser at 15 mW power. Forward scatter and side scatter were used to gate the RBC population. […] The single-cell population was selected on a forward-side scatter scattergram, and the fluorescence from this population was analyzed. Parasitemia was expressed as the number of parasitized cells per 100 erythrocytes.\nParasitemia was determined by microscopic counting of blood smears, or by fluorescence-assisted cell sorting (FACS)."}}, "note": "Entries after “also recorded” stand apart in the source; their conditions may differ.", "data": [{"smiles": "CCCCCCCC/C=C\\CCCCCCCC(=O)OCC(C[N+](C)(C)C)OC(=O)CCCCCCC/C=C\\CCCCCCCC", "note": "(stereo not shown) [DOTAP, 1,2-dioleoyl-3-trimethylammonium-propane]", "values": [{"measurement": "cytotoxicity", "setting": "healthy cells", "value": "not toxic; also recorded: not observed"}]}, {"smiles": "COc1cc(NC(C)CCCN)c2ncccc2c1", "note": "(stereo not shown) [PQ, primaquine]", "values": [{"measurement": "parasitemia", "setting": "P. falciparum 3D7 strain; Example 1, FIG. 2", "value": 24.8, "unit": "%"}, {"measurement": "parasitemia", "setting": "P. falciparum 3D7 strain; Example 2, FIG. 3", "value": 45.8, "unit": "%"}, {"measurement": "parasitemia", "setting": "P. falciparum 3D7 strain; Example 3, FIG. 4", "value": 46.4, "unit": "%"}]}]}
